From PubChem BioAssay (NCI)
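The compound was tested at five concentrations on cells cultured in 96-well plates, with a 48-hour exposure period. TGI denotes the concentration required for complete inhibition of growth.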 Where a SMILES comes first, the peptide text is derived from it. [ ]: non-standard residue; d: D form. The star is where a group is joined. Phe(4-NO2) = N[CH](Cc1ccc([N+](=O)[O-])cc1)C(=O)O; Boc = CC(C)(C)OC(=O)*; OBn = c1ccc(CO*)cc1

Columns and labels:
Assay in all cases: NCI-60 cell line screen, 48 h
A549 NSCLC = tested on: A549 NSCLC
ACHN renal = tested on: ACHN renal
M14 melanoma = tested on: M14 melanoma
MALME-3M melanoma = tested on: MALME-3M melanoma
MCF7 breast = tested on: MCF7 breast
NCI-H460 lung = tested on: NCI-H460 lung
OVCAR-8 ovarian = tested on: OVCAR-8 ovarian
SF-268 CNS = tested on: SF-268 CNS
SN12C renal = tested on: SN12C renal
SNB-75 CNS = tested on: SNB-75 CNS

SMILES | TGI (A549 NSCLC) [µM] | TGI (ACHN renal) [µM] | TGI (M14 melanoma) [µM] | TGI (MALME-3M melanoma) [µM] | TGI (MCF7 breast) [µM] | TGI (NCI-H460 lung) [µM] | TGI (OVCAR-8 ovarian) [µM] | TGI (SF-268 CNS) [µM] | TGI (SN12C renal) [µM] | TGI (SNB-75 CNS) [µM]
Oc1ccc(Cl)cc1C1=N/C(=N\CN2CCN(C/N=C3/N=C(c4cc(Cl)ccc4O)CC(c4ccccc4)N3)CC2)NC(c2ccccc2)C1 (centres undefined) | > 100 | 75.6 | > 100 | > 100 | > 100 | > 100 | > 100 | > 100 | 64.3 | 96.8
CN1CC2=C(OC(N)=C(C#N)C2c2cccs2)/C(=C/c2cccs2)C1 (centres undefined) | > 75.2 | 38.7 | > 55.9 | 38.4 | 8.33 | 58.9 | > 67.7 | > 31.1 | > 100 | 
COC(=O)CCC(NC(=O)OC(C)(C)C)C(=O)NC(Cc1ccc([N+](=O)[O-])cc1)C(=O)NCC(=O)OCc1ccccc1 (centres undefined) (Boc-Glu(OMe)-[Phe(4-NO2)]-Gly-OBn; configuration not given here) | > 100 | > 100 | > 100 | > 100 | > 100 | > 100 | > 100 | > 100 | > 100 | 48.4
CCN1CC(C)Cn2c(=O)[nH]c3cc(Br)cc1c32 (centres undefined) | > 100 | > 100 | > 100 | > 100 | 87.4 | > 100 | > 100 | > 100 | > 100 | 48.3
N=C(N)SCCON1C(=O)c2ccccc2C1=O | > 100 | > 100 | > 100 | > 100 | > 100 | > 100 | > 100 | > 100 | > 100 | > 100
CC(=O)O/C=C\OC1CCCC1(c1ccccc1)c1ccccc1 (centres undefined) | 43.8 | 4.36 | 5.75 | 4.61 | 5.42 | 26.6 | 7.3 | 10.3 | 10.3 | 11.5
O=C(Nc1ccccc1)O/N=C(/CBr)c1ccccc1 | > 100 | 33.2 | 28.4 | 33.9 | 40 | 43.1 | 44.1 | 47.7 | 25 | 30.5
CC(=O)NCCCCNCCCNC(C)=O | > 100 | > 100 | > 100 | > 100 | > 100 | > 100 | > 100 | > 100 | > 100 | > 100
CCNC(=O)Nc1cccc(C)n1 | > 100 | > 100 | > 100 | > 100 | > 100 | > 100 | > 100 | > 100 | > 100 | > 100
c1ccc(CNc2c3c(nc4ccccc24)CCC3)cc1 | 38.9 | 40.9 | 27.2 | 33.4 | 30.9 | 25 | 31.7 | 46.6 | 34.9 | 43.5
